Series [1] relates to HT-29. Put plainly: Photocytotoxicity against human HT-29 cells with high expression of alphaVbeta3 integrin assessed as decrease in cell viability preincubated for 2 hrs followed by red light irradiation and measured after overnight incubation by MTT assay. In kind it is functional, cell-based. Particulars: HT-29, light or radiation study; call rule not given here. On the technique in general: Tetrazolium assays rely on reduction of a dye to a coloured formazan, in cell work by metabolically active cells.

Series [2] in a line: Drug uptake in human MCF7 cells at 1 uM after 24 hrs by confocal laser scanning microscopic method. In kind it is ADME, cell-based. Conditions: mcf7, 24 h.
The nature of series [3]: Aggregation behavior of compound in water at 3 uM by UV-vis absorption spectra analysis. The series is classed as physicochemical. Conditions: buffer.
Series [4] relates to MCF7. Put plainly: Induction of reactive oxygen species formation in human MCF7 cells with […] expression of alphaVbeta3 integrin preincubated for 2 hrs followed by incubation with DCF-DA dye for 30 mins and measured after irradiation by fluorescence assay. In kind it is functional, cell-based.
Series [5] can be described thus: Dark toxicity against human MCF7 cells with low expression of alphaVbeta3 integrin assessed as decrease in cell viability incubated for 2 to 24 hrs by MTT assay. In kind it is cell-based.
Series [6] concerns MCF7. Put plainly: Photocytotoxicity against human MCF7 cells with low expression of alphaVbeta3 integrin assessed as decrease in cell viability preincubated for 24 hrs followed by red light irradiation and measured after overnight incubation by MTT assay. Conditions: MCF7, light or radiation study. In kind it is functional, cell-based.
A short description of series [7]: Photostability in DMF assessed as release of singlet oxygen at 4 uM preincubated with DPBF in dark followed by irradiation with red light by DPBF decay assay. In kind it is functional.
Series [8] deals with H22. Put plainly: Antitumor activity against […] cells expressing integrin xenografted in KM mouse assessed as tumor growth inhibition at 0.5 nmol/g, iv administered 12 hrs followed by irradiation with laser for 6 mins and measured after 14 days. In kind it is functional. On the technique in general: A xenograft is tissue or cells of one species grown in another, often human tumour cells in immunodeficient mice.

The test system of series [9] is HT-29. Put plainly: Photocytotoxicity against human HT-29 cells with high expression of alphaVbeta3 integrin assessed as decrease in cell viability preincubated for 24 hrs followed by red light irradiation and measured after overnight incubation by MTT assay. Particulars: HT-29, light or radiation study. In kind it is functional, cell-based.
The subject of series [10] is HaCaT. Put plainly: Photocytotoxicity against human HaCaT cells assessed as decrease in cell viability preincubated for 24 hrs followed by red light irradiation and measured after overnight incubation by MTT assay. In kind it is cell-based. Particulars: light or radiation study.
Series [11] deals with Mus musculus. The experiment in a line: Drug uptake in KM mouse xenografted with […] cells at 0.5 nmol/g, iv measured after 24 hrs by fluorescence imaging method. The series is classed as ADME, organism-based. Particulars: in vivo.
The nature of series [12]: Selectivity index, ratio of IC50 for photocytotoxicity against human HaCaT cells to IC50 for photocytotoxicity against human HT-29 cells with high expression of alphaVbeta3 integrin. In kind it is toxicity, cell-based. Conditions: read-out: Ratio IC50.
The subject of series [13] is HT-29. Put plainly: Induction of reactive oxygen species formation in human HT-29 cells with high expression of alphaVbeta3 integrin preincubated for 2 hrs followed by DCF-DA dye addition and measured after 30 mins in absence of light by fluorescence assay. The series is classed as cell-based. Conditions: ht-29, 0.5 h.
Series [14] is described as follows: Drug uptake in lysosome of human HT-29 cells at 1 uM incubated for 0.5 hrs by Lyso Tracker red dye-based confocal laser scanning microscopic method. Particulars: ht-29, 0.5 h. In kind it is ADME, subcellular.
Series [15] relates to MCF7. Put plainly: Photocytotoxicity against human MCF7 cells with low expression of alphaVbeta3 integrin assessed as decrease in cell viability preincubated for 2 hrs followed by red light irradiation and measured after overnight incubation by MTT assay. Particulars: MCF7, light or radiation study. The series is classed as functional, cell-based.
Series [16] concerns Mus musculus. Put plainly: Drug uptake in KM mouse xenografted with […] cells at 0.5 nmol/g, iv measured up to 24 hrs by fluorescence imaging method. The series is classed as ADME, organism-based. Particulars: in vivo.
The nature of series [17]: Ratio of drug level in tumor of KM mouse xenografted with […] cells expressing integrin to liver of KM mouse xenografted with […] cells at 0.5 nmol/g, iv measured after 24 hrs. The series is classed as ADME, organism-based, Tumor/tissue. Particulars: in vivo.
The subject of series [18] is HT-29. Put plainly: Induction of reactive oxygen species formation in human HT-29 cells with high expression of alphaVbeta3 integrin preincubated for 2 hrs followed by incubation with DCF-DA dye for 30 mins and measured after irradiation by fluorescence assay. In kind it is functional, cell-based.
Series [19] is described as follows: Aggregation behavior of compound in RPMI 1640 medium with 0.05% cremophor EL at 3 uM by UV-vis absorption spectra analysis. In kind it is physicochemical.
Series [20] relates to HaCaT. Put plainly: Photocytotoxicity against human HaCaT cells assessed as decrease in cell viability preincubated for 2 hrs followed by red light irradiation and measured after overnight incubation by MTT assay. The series is classed as cell-based. Conditions: light or radiation study.
A short description of series [21]: Selectivity ratio of IC50 for human MCF7 cells with low expression of alphaVbeta3 integrin to IC50 for human HT-29 cells with high expression of alphaVbeta3 integrin preincubated for 24 hrs followed by red light irradiation and measured after overnight incubation by MTT assay. In kind it is functional.
Series [22] has as its system MCF7. Put plainly: Induction of reactive oxygen species formation in human MCF7 cells with low expression of alphaVbeta3 integrin preincubated for 2 hrs followed by DCF-DA dye addition and measured after 30 mins in absence of light by fluorescence assay. In kind it is cell-based. Particulars: mcf7, 0.5 h.
Series [23] is described as follows: Selectivity ratio of IC50 for human MCF7 cells with low expression of alphaVbeta3 integrin to IC50 for human HT-29 cells with high expression of alphaVbeta3 integrin preincubated for 2 hrs followed by red light irradiation and measured after overnight incubation by MTT assay. The series is classed as functional.
The nature of series [24]: Drug uptake in tumor of KM mouse xenografted with […] cells expressing integrin at 0.5 nmol/g, iv measured after 1 to 24 hrs by fluorescence imaging method. Particulars: in vivo. In kind it is ADME, organism-based, Neoplasm.
Series [25] in a line: Dark toxicity against human HT-29 cells with high expression of alphaVbeta3 integrin assessed as decrease in cell viability incubated for 2 to 24 hrs by MTT assay. In kind it is cell-based.
For series [26], the system named is H22. The experiment in a line: Dark toxicity against […] cells expressing integrin xenografted in KM mouse at 0.5 nmol/g, iv administered 12 hrs measured every other day for 14 days. In kind it is organism-based. Particulars: in vivo, 336 h.
The nature of series [27]: Aggregation behavior of compound in DMF at 1 to 6 uM by UV-vis absorption spectra analysis. The series is classed as physicochemical.
Series [28] is described as follows: Ratio of drug level in tumor of KM mouse xenografted with […] cells expressing integrin to kidney of KM mouse xenografted with […] cells at 0.5 nmol/g, iv measured after 24 hrs. The series is classed as ADME, organism-based, Tumor/tissue. Particulars: in vivo.
Series [29] can be described thus: Drug uptake in lung of KM mouse xenografted with […] cells expressing integrin at 0.5 nmol/g, iv measured after 24 hrs by fluorescence imaging method. The series is classed as ADME, organism-based. Conditions: in vivo.
The nature of series [30]: Drug uptake in tumor of KM mouse xenografted with […] cells expressing integrin at 0.5 nmol/g, iv measured after 24 hrs by fluorescence imaging method. The series is classed as ADME, organism-based, Neoplasm. Conditions: in vivo.
A short description of series [31]: Drug uptake in skin of KM mouse xenografted with […] cells expressing integrin at 0.5 nmol/g, iv measured after 24 hrs by fluorescence imaging method. The series is classed as ADME, organism-based, Zone of skin. Conditions: in vivo.
Series [32] can be described thus: Drug uptake in spleen of KM mouse xenografted with […] cells expressing integrin at 0.5 nmol/g, iv measured after 24 hrs by fluorescence imaging method. The series is classed as ADME, organism-based. Particulars: in vivo.
A short description of series [33]: Drug uptake in human HT-29 cells at 1 uM after 2 to 24 hrs by confocal laser scanning microscopic method. Conditions: ht-29, 1 µM. The series is classed as ADME, cell-based.
Series [34] is described as follows: Drug uptake in kidney of KM mouse xenografted with […] cells expressing integrin at 0.5 nmol/g, iv measured after 24 hrs by fluorescence imaging method. The series is classed as ADME, organism-based. Conditions: in vivo.
Series [35] in a line: Aggregation behavior of compound in DMF by UV-vis absorption spectra analysis. The series is classed as physicochemical.
Series [36] is described as follows: Drug uptake in mitochondria of human HT-29 cells at 1 uM incubated for 0.5 hrs by Mito Tracker green dye-based confocal laser scanning microscopic method. In kind it is ADME. Conditions: ht-29, 0.5 h.
A short description of series [37]: Drug uptake in liver of KM mouse xenografted with […] cells expressing integrin at 0.5 nmol/g, iv measured after 24 hrs by fluorescence imaging method. The series is classed as ADME, organism-based. Particulars: in vivo.
A short description of series [38]: Drug uptake in heart of KM mouse xenografted with […] cells expressing integrin at 0.5 nmol/g, iv measured after 24 hrs by fluorescence imaging method. The series is classed as ADME, organism-based. Particulars: in vivo.

The structures appear in SMILES notation.

For `N=C(N)NCCC[C@@H]1NC(=O)[C@H](Cc2cn(CCOCCOCCO[Si]3(OCCOCCOCCn4cc(C[C@@H]5NC(=O)[C@@H](Cc6ccccc6)NC(=O)[C@H](CC(=O)O)NC(=O)CNC(=O)[C@H](CCCNC(=N)N)NC5=O)nn4)n4c5c6ccccc6c4/N=C4N=C(/N=c6/c7ccccc7/c(n63)=N/C3=NC(=N\5)/c5ccccc53)c3ccccc3\4)nn2)NC(=O)[C@@H](Cc2ccccc2)NC(=O)[C@H](CC(=O)O)NC(=O)CNC1=O` (some centres not stated), the IC50 (usually the concentration needed to halve the response being measured) is 30 nM in series [1]; 66 nM in [6]; 23 nM in series [9]; 56 nM in series [10]; 100 nM in series [15]; 60 nM in series [20]. The Drug uptake result in [2] is given as “Not Active”; in [11], “Not Active”; in series [14] it was “Active”; in [16] it was “Active”; in series [24] it was “Active”. For the same compound, the Activity result is “Not Active” in series [3]; “Dose-dependent effect” in series [4]; “Non-Toxic” in [5]; “Non-Toxic” in series [13]; “Dose-dependent effect” in series [18]; “Not Active” in series [19]. The Activity entry in series [22] is reported as “Non-Toxic”; in series [25], “Non-Toxic”; in series [26], “Non-Toxic”; in series [27], “Not Active”. In series [7], the Stability result is “Unstable”. Moreover, in [8], the tumour growth inhibition (TGI) – broadly, how far tumour growth fell short of that in controls – is reported as 75%. In addition, the selectivity ratio in series [12] is 2. Also, the Ratio in series [17] is on record as 2.1; in series [28], 2. Further, the results for the “Ratio IC50” value in series [21] and in series [23] were 2.87 and 3.33, respectively.
With `OCCOCCOCCO[Si]1(OCCOCCOCCO)n2c3c4ccccc4c2/N=C2N=C(/N=c4/c5ccccc5/c(n41)=N/C1=NC(=N\3)/c3ccccc31)c1ccccc1\2`, the Drug uptake entry is “Not Active” in series [29]; “Not Active” in series [30]; “Not Active” in series [31]; “Not Active” in series [32]; “Active” in [33]; “Not Active” in [34]. In addition, the Drug uptake result in [14] is listed as “Active”; in series [16], “Not Active”; in series [36] it was “Active”; in series [37], “Not Active”; in [38], “Not Active”. Moreover, the IC50 in [1], in series [6], in series [9] and in series [15] was 0.3 nM each time. In addition, in series [7], the Stability entry was “Unstable”. The “Ratio IC50” value in [21] and in series [23] was 1 each time. In addition, in series [35], the Activity result is given as “Not Active”.

Source of the values: ChEMBL document CHEMBL4152282, “Synthesis and photodynamic activities of integrin-targeting silicon(IV) phthalocyanine-cRGD conjugates” (Eur J Med Chem, 2018).
